# Assay results from patent US6864275B1, “Compounds and methods for use thereof in the treatment of cancer” (UAF Technologies and Research, LLC, priority 1997, dated 2005).
# Assays:
# B16 murine melanoma [1] = experiment: MTT cell growth inhibition, B16 melanoma cells; format: cell-based; details: 3-6 days incubation
# Procedure: (§1) The following cell culture tests were performed to test the toxicity of benzimidazole derivative compounds of the present invention on colon and melanoma tumor cells. The viability of the cells were tested by looking at MTT (3-[4,5-dimethylthiazol-2-yl]-2,5-diphenyltetrazolium bromide) reduction. MTT assay is a well known measure of cell viability.
# (§2) The colon tumor cells (HT29) and the melanoma cells (B16 murine melanoma) were seeded (1000-2000 cells) into each well of a 96-well microtiter plate and allowed to grow. Twenty-four hours later, increasing concentrations of each benzimidazole derivative were added to the plates and the cells were allowed to incubate for 3-6 days in the presence of the drugs. MTT reagent was then added to the wells and allowed to incubate for 4 hours at 37° C., after which the formazan metabolite was solubilized with acidic isopropanol and the absorbance was read. Experimental controls included blank wells to which no cells were added (zero point of formazan absorbance) and control wells to which no drug was added (highest level of formazan absorbance). Each drug concentration was tested in duplicate and the resulting average absorbance was plotted against drug concentration using the EZ-ED50 computer program on a personal computer interfaced to the microtiter plate reader. […] The IC50 value is then derived from this equation by EZ-ED50.
# colon tumor cells (HT29) = experiment: MTT cell growth inhibition, HT29 colon tumor cells; format: cell-based; details: 3-6 days incubation, read-out: IC50 Human Colon Carcinoma
# Procedure: as §1, §2
# Tubulin = experiment: Microtubule inhibition assay (tubulin polymerization, absorbance at 350 nm); format: biochemical, bovine; details: compound at 2 μM, after 30 minutes
# Procedure: The benzimidazole derivatives of this invention were evaluated for their ability to inhibit formation of microtubules, following the procedure of Luduena, R. F. and M. C. […] Microtubule polymerization was followed by performing the reaction in a cuvette and monitoring UV absorbance at 350 nm, allowing direct visualization of the time course of the polymerization.
# B16 murine melanoma [2] = experiment: In vivo B16 murine melanoma tumor model; set-up: species or system B6D2F1 mice; details: qd × 5; for T/C (%): mean survival treated/control; for # of Survivors: survived at least 60 days
# Procedure: B6D2F1 mice received interperitoneally (i.p.) inocula of B16 murine melanoma brei prepared from B16 tumors growing s.c. in mice (Day 0). On Day 1, mice were randomized into groups, with 20 mice in the control group and 10 mice in each treated group (except there were 8 mice in selected groups given compound 3-13. Treatment with drugs or vehicle control was started on Day 1.
# The mean survival times of all groups were calculated and results were expressed as mean survival of treated mice/mean survival of control mice (T/C)×100%. A “T/C” value of 150 means that the mice in the treated group lived 50% longer than those of the control group; this is sometimes referred to as the increase in life span, or ILS value.
# Mice that survived for at least 60 days were considered to be long-term survivors, or cures, in the B16 model. The universally accepted cut-off for activity in this model, which has been used for years by the NCI, is T/C=125. Conventional use of B16 over the years has set the following levels of activity:
# T/C>300, with long-term survivors=excellent, curative activity.
Compound,IC50 (B16 murine melanoma [1]) [µM],IC50 (colon tumor cells (HT29)) [µM],"Tubulin Polymerization Inhibition, % Inhibition (Tubulin) [%]",# of Toxic Deaths (B16 murine melanoma [2]; 50 mg/kg/i.p),Weight Change (Day 12) (B16 murine melanoma [2]; 50 mg/kg/i.p),T/C (%) (B16 murine melanoma [2]; 50 mg/kg/i.p),# of Survivors (B16 murine melanoma [2]; 50 mg/kg/i.p),# of Toxic Deaths (B16 murine melanoma [2]; 100 mg/kg/i.p),Weight Change (Day 12) (B16 murine melanoma [2]; 100 mg/kg/i.p),T/C (%) (B16 murine melanoma [2]; 100 mg/kg/i.p),# of Survivors (B16 murine melanoma [2]; 100 mg/kg/i.p),# of Toxic Deaths (B16 murine melanoma [2]; 10 mg/kg/i.v),Weight Change (Day 12) (B16 murine melanoma [2]; 10 mg/kg/i.v),T/C (%) (B16 murine melanoma [2]; 10 mg/kg/i.v),# of Survivors (B16 murine melanoma [2]; 10 mg/kg/i.v),# of Toxic Deaths (B16 murine melanoma [2]; 20 mg/kg/i.v),Weight Change (Day 12) (B16 murine melanoma [2]; 20 mg/kg/i.v),T/C (%) (B16 murine melanoma [2]; 20 mg/kg/i.v),# of Survivors (B16 murine melanoma [2]; 20 mg/kg/i.v),further results
COC(=O)Nc1nc2ccc(C(=O)OCC(C)CC(C)(C)C)cc2[nH]1 (stereo not drawn) [3-13],0.0046,0.019,28,0,+12.5%,94,0,0,+9.8%,75,0,–,–,–,–,–,–,–,–,# of Toxic Deaths (B16 murine melanoma [2]; 2.5 mg/kg/i.v): 0; Weight Change (Day 12) (B16 murine melanoma [2]; 2.5 mg/kg/i.v): +11.7%; T/C (%) (B16 murine melanoma [2]; 2.5 mg/kg/i.v): 92%; # of Survivors (B16 murine melanoma [2]; 2.5 mg/kg/i.v): 0; # of Toxic Deaths (B16 murine melanoma [2]; 5 mg/kg/i.v): 7; Weight Change (Day 12) (B16 murine melanoma [2]; 5 mg/kg/i.v): +3.6%; T/C (%) (B16 murine melanoma [2]; 5 mg/kg/i.v): 91%; # of Survivors (B16 murine melanoma [2]; 5 mg/kg/i.v): 0
C=CCCOC(=O)c1ccc2nc(NC(=O)OC)[nH]c2c1 [3-6],0.044,0.0076,12,0,+9.4%,119,0,0,+8.9%,118,0,0,+8.7%,107,0,0,+6.5%,99,0,–
COC(=O)Nc1nc2ccc(C(=O)OCCCCCl)cc2[nH]1 [Cpd. No. 3-1],0.011,0.01,28,0,+7.5%,132,–,0,+12.9%,108,0,0,+9.3%,97,0,0,+6.3%,98,0,"antitumor activity level by NCI criteria (B16 murine melanoma [2]; 50 mg/kg/i.p): weak activity (T/C=125-150, weak activity)"
